The record followed here is US12077555B2, “STAT degraders and uses thereof” (Kymera Therapeutics, Inc., priority 2019, dated 2024).

Where only a bound is given, the exact number is not on record here.

Sequence of STAT3 (P40763 whole entry): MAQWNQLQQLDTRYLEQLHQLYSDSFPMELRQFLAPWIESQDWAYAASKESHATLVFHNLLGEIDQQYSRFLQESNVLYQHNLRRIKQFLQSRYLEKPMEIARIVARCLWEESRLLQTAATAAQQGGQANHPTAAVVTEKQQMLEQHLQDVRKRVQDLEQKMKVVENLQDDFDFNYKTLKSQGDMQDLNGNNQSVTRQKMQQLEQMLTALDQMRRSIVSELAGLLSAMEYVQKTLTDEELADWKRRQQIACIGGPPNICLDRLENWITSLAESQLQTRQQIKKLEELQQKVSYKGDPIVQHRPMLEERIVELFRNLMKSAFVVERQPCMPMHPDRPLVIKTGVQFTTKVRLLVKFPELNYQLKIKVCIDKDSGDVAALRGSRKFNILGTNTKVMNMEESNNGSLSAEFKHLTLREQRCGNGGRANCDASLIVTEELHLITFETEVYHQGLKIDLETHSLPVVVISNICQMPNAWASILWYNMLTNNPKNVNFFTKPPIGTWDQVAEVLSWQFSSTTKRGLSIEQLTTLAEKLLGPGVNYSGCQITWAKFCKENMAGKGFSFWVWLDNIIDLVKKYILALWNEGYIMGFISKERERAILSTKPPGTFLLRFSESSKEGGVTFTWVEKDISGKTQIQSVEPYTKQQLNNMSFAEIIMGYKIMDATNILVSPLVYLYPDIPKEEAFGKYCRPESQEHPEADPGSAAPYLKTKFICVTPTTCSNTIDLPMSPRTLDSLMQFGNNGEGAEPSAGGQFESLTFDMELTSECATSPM

This experiment has as its target STAT3 (Homo sapiens, UniProt P40763). The experiment in a line: Quantitation of STAT3 degradation in A549 cells by Western blot. The conditions noted are these: read-out: A549 DC50, 24 hours, tested up to 30 μM or 10 μM. The experiment is classed as cell-based. Further details: expressed in transfected cells; host or cells: A549. The protocol: Degradation of total cellular STAT3 protein in A549 was quantitatively measured using SDS-PAGE and Western blot analysis. A549 cells (5×10^5 cells/well, 2 mL) were seeded into 6-well plates and were incubated in the incubator under 5% CO2 overnight to reach ˜80% confluency. The next day, the culture medium was changed with 1 ml fresh media. Then, 1 mL of media containing 2× compound solution was added into the well to make the final concentration of 30 μM, 10 μM, 3 μM, 1 μM, 0.3 μM and 0 μM (DMSO). The media was thoroughly mixed and incubated for 24 hours at 37° C. under 5% CO2. Then, the culture media was removed from the assay plates and the cells were washed with ice-cold PBS twice. To prepare cell lysates, 200 ul pre-chilled RIPA lysis buffer (Boston BioProducts BP-115D) with protease/phosphatase inhibitor (Roche 05892791001/Roche 04906837001) was added directly into the well to lyse the cells for 20 minutes on ice. The cell lysates were then transferred to centrifuge tubes. Insoluble part of lysates was removed by centrifuging the lysates at 13000 rpm for 20 minutes. The supernatant was then collected and mixed with 5× loading buffer (Beyotime Bio P0015) to make the final samples for SDS-PAGE analysis. The samples were heated at 100° C. for 10 minutes and cool to room temperature before centrifuging at 13000 rpm for 20 minutes. To analyze the samples by SDS-PAGE, 10 ul samples were loaded onto SDS-PAGE gel (Novex, WG1403BOX) and the SDS-PAGE gel was run for 20 minutes at 80 V, then at 120 V for 1.5 hours. The SDS-PAGE gel was then transferred to nitrocellulose membrane using the wet-transfer method at 250 mA for 1.5 hours. The membrane was then blocked with LI-COR blocking buffer (LI-COR, 927-50000) for 1 hour and was probed with primary antibody (mouse anti-STAT3 (124H6) (CST #91395) 1:2000 or mouse anti-beta-Actin (8H10D10) (CST #3700) 1:10000) at 4° C. overnight. The membrane was then washed three times with TBST buffer and probed with secondary antibody (anti-mouse IgG (LI-COR, 926-68070), 1:5000) for 1 hour at room temperature. The membrane was then scanned on a LI-COR Odyssey instrument and was quantified using Image Studio Version 5.2. Concentration at 50% degradation (DC50) was calculated by fitting dose dependent degradation data using a sigmoidal equation using GraphPad Prism Version 8.0.
(In western blotting, separated proteins are transferred to a membrane and probed.)
For `C/C(=C\C(=O)N[C@H]1CN(C(=O)CCCCCCCc2ccc3c(c2)n(C)c(=O)n3C2CCC(=O)NC2=O)CC[C@H]2CC[C@@H](C(=O)N[C@@H](CCC(N)=O)C(=O)NC(c3ccccc3)c3ccccc3)N2C1=O)c1ccc(C(F)(F)P(=O)(O)O)cc1` (stereo partly drawn) [Compound I-113, [4-[(1E)-1-[[(5S,8S,10aR)-8-[[(1S)-3-carbamoyl-1-(diphenylmethylcarbamoyl)propyl]carbamoyl]-3-[8-[1-(2,6-dioxopiperidin-3-yl)-3-methyl-2-oxo-1,3-benzodiazol-5-yl]octanoyl]-6-oxo-octahydropyrrolo[1,2-a][1,5]diazocin-5-yl]carbamoyl]prop-1-en-2-yl]phenyl]difluoromethylphosphonic acid], the half-maximal degradation concentration (DC50) was greater than 30 µM. Consider `Cc1ncsc1-c1ccc(CNC(=O)[C@@H]2C[C@@H](O)CN2C(=O)[C@@H](NC(=O)CCCC#Cc2ccc(CO[C@H](C)[C@H](CCC(N)=O)NC(=O)[C@@H]3Cc4cccc5c4N3C(=O)[C@@H](NC(=O)c3cc4cc(C(=O)P(=O)(O)O)ccc4[nH]3)CC5)cc2)C(C)(C)C)cc1` [Compound I-86], for which the 50% degradation concentration (DC50) was less than 30 µM. In the case of `C/C(=C\C(=O)N[C@H]1CCc2cccc3c2N(C1=O)[C@H](C(=O)N[C@@H](CCC(N)=O)[C@@H](C)OCCCc1ccc2c(c1)n(C)c(=O)n2C1CCC(=O)NC1=O)C3)c1ccc(C(F)(F)P(=O)(O)O)cc1` (stereo partly drawn) [Compound I-110, diammonium [4-[(1E)-1-[[(2S,11S)-2-[[(3S,4R)-1-carbamoyl-4-[3-[1-(2,6-dioxopiperidin-3-yl)-3-methyl-2-oxo-1,3-benzodiazol-5-yl]propoxy]pentan-3-yl]carbamoyl]-12-oxo-1-azatricyclo[6.4.1.0^[4,13]]trideca-4(13),5,7-trien-11-yl]carbamoyl]prop-1-en-2-yl]phenyl]difluoromethylphosphonate], the DC50 is greater than 30 µM. To `Cc1ncsc1-c1ccc(CNC(=O)[C@@H]2C[C@@H](O)CN2C(=O)[C@@H](NC(=O)CCc2ccc3cc(CO[C@H](C)[C@H](CCC(N)=O)NC(=O)[C@@H]4Cc5cccc6c5N4C(=O)[C@@H](NC(=O)c4cc5cc(C(=O)P(=O)(O)O)ccc5[nH]4)CC6)ccc3c2)C(C)(C)C)cc1` [Compound I-87, diammonium 2-[[(2S,11S)-2-[[(3S,4R)-1-carbamoyl-4-[[6-(2-[[(2S)-1-[(2S,4R)-4-hydroxy-2-([[4-(4-methyl-1,3-thiazol-5-yl)phenyl]methyl]carbamoyl)pyrrolidin-1-yl]-3,3-dimethyl-1-oxobutan-2-yl]carbamoyl]ethyl)naphthalen-2-yl]methoxy]pentan-3-yl]carbamoyl]-12-oxo-1-azatricyclo[6.4.1.0^[4,13]]trideca-4(13),5,7-trien-11-yl]carbamoyl]-1H-indole-5-carbonylphosphonate] belongs less than 30 µM; to `C/C(=C\C(=O)N[C@H]1CN(C(=O)CCCCCCc2ccc3c(c2)n(C)c(=O)n3C2CCC(=O)NC2=O)CC[C@H]2CC[C@@H](C(=O)N[C@@H](CCC(N)=O)C(=O)NC(c3ccccc3)c3ccccc3)N2C1=O)c1ccc(C(F)(F)P(=O)(O)O)cc1` (stereo partly shown) [Compound I-112], less than 30 µM. Take `Cc1ncsc1-c1ccc(CNC(=O)[C@@H]2C[C@@H](O)CN2C(=O)[C@@H](NC(=O)CCCCCc2ccc(CO[C@H](C)[C@H](CCC(N)=O)NC(=O)[C@@H]3Cc4cccc5c4N3C(=O)[C@@H](NC(=O)c3cc4cc(C(=O)P(=O)(O)O)ccc4[nH]3)CC5)cc2)C(C)(C)C)cc1` [Compound I-117, (2-(((3S,6S)-6-(((2R,3S)-6-amino-2-((4-(6-(((S)-1-((2S,4R)-4-hydroxy-2-((4-(4-methylthiazol-5-yl)benzyl)carbamoyl)pyrrolidin-1-yl)-3,3-dimethyl-1-oxobutan-2-yl)amino)-6-oxohexyl)benzyl)oxy)-6-oxohexan-3-yl)carbamoyl)-4-oxo-1,2,3,4,6,7-hexahydroazepino[3,2,1-hi]indol-3-yl)carbamoyl)-1H-indole-5-carbonyl)phosphonic acid]: the DC50 was less than 30 µM.

As to `Cn1c(C(=O)N[C@H]2CN(C(=O)CCCCCC#Cc3cccc4c3CN(C3CCC(=O)NC3=O)C4=O)CC[C@H]3CC[C@@H](C(=O)N[C@@H](CCC(N)=O)C(=O)NC(c4ccccc4)c4ccccc4)N3C2=O)cc2cc(C(=O)P(=O)(O)O)ccc21` (stereo partly drawn) [Compound I-102, diammonium 2-[[(5S,8S,10aR)-8-[[(1S)-3-carbamoyl-1-(diphenylmethylcarbamoyl)propyl]carbamoyl]-3-[8-[2-(2,6-dioxopiperidin-3-yl)-1-oxo-3H-isoindol-4-yl]oct-7-ynoyl]-6-oxo-octahydropyrrolo[1,2-a][1,5]diazocin-5-yl]carbamoyl]-1-methylindole-5-carbonylphosphonate], the half-maximal degradation concentration (DC50) was less than 30 µM. To `C/C(=C\C(=O)N[C@H]1CCc2cccc3c2N(C1=O)[C@H](C(=O)NC(CCC(N)=O)[C@@H](C)OCc1ccc(CCCOCCOCCOCC(=O)N[C@H](C(=O)N2C[C@H](O)C[C@H]2C(=O)NCc2ccc(-c4scnc4C)cc2)C(C)(C)C)cc1)C3)c1ccc(C(F)(F)P(=O)(OCOC(=O)C(C)(C)C)OCOC(=O)C(C)(C)C)cc1` (stereo partly shown) [Compound I-33] belongs greater than 10 µM; to `C/C(=C\C(=O)N[C@H]1CCc2cccc3c2N(C1=O)[C@H](C(=O)NC(CCC(N)=O)[C@@H](C)OCc1ccc(CCCOCCCCCCOCCCc2cccc4c2n(C)c(=O)n4C2CCC(=O)NC2=O)cc1)C3)c1ccc(C(F)(F)P(=O)(OCOC(=O)C(C)(C)C)OCOC(=O)C(C)(C)C)cc1` (stereo partly shown) [Compound I-44], greater than 30 µM. To `C[C@@H](OCc1ccc(CCCCCCc2ccc3c(c2)n(C)c(=O)n3C2CCC(=O)NC2=O)cc1)[C@H](CCC(N)=O)NC(=O)[C@@H]1Cc2cccc3c2N1C(=O)[C@@H](NC(=O)c1cc2cc(C(=O)P(=O)(O)O)ccc2[nH]1)CC3` (stereo partly drawn) [Compound I-118, diammonium 2-[[(2S,11S)-2-[[(3S,4R)-1-carbamoyl-4-[(4-[6-[1-(2,6-dioxopiperidin-3-yl)-3-methyl-2-oxo-1,3-benzodiazol-5-yl]hexyl]phenyl)methoxy]pentan-3-yl]carbamoyl]-12-oxo-1-azatricyclo[6.4.1.0^[4,13]]trideca-4(13),5,7-trien-11-yl]carbamoyl]-1H-indole-5-carbonylphosphonate] belongs greater than 30 µM; to `C/C(=C\C(=O)N[C@H]1CCc2cccc3c2N(C1=O)[C@H](C(=O)N[C@@H](CCC(N)=O)[C@@H](C)OCc1ccc(CCCCOc2cc(-c4scnc4C)ccc2CNC(=O)[C@@H]2C[C@@H](O)CN2C(=O)[C@@H](NC(=O)C2(F)CC2)C(C)(C)C)cc1)C3)c1ccc(C(F)(F)P(=O)(OCOC(=O)C(C)(C)C)OCOC(=O)C(C)(C)C)cc1` [Compound I-26], greater than 10 µM. `C/C(=C\C(=O)N[C@H]1CCc2cccc3c2N(C1=O)[C@H](C(=O)N[C@@H](CCC(N)=O)[C@@H](C)OCc1ccc(CCC(=O)N[C@H](C(=O)N2C[C@H](O)CC2C(=O)NCc2ccc(-c4scnc4C)cc2)C(C)(C)C)cc1)C3)c1ccc(C(F)(F)P(=O)(OCOC(=O)C(C)(C)C)OCOC(=O)C(C)(C)C)cc1` (stereo partly shown) [Compound I-12]: the half-maximal degradation concentration (DC50) is greater than 30 µM. Take `CCCC[C@H](NC(=O)/C=C(\C)c1ccc(C(F)(F)P(=O)(OCOC(=O)C(C)(C)C)OCOC(=O)C(C)(C)C)cc1)C(=O)N1C[C@H]2C[C@H]2[C@H]1C(=O)N[C@@H](CCC(N)=O)[C@@H](C)OCc1ccc(CCCNC(=O)COCCOCCCc2ccc3c(c2)n(C)c(=O)n3C2CCC(=O)NC2=O)cc1` (stereo partly drawn) [Compound I-58, [([4-[(1E)-1-[[(2S)-1-[(1R,2S,5S)-2-[[(3S,4R)-1-carbamoyl-4-[(4-[3-[2-(2-[3-[1-(2,6-dioxopiperidin-3-yl)-3-methyl-2-oxo-1,3-benzodiazol-5-yl]propoxy]ethoxy)acetamido]propyl]phenyl)methoxy]pentan-3-yl]carbamoyl]-3-azabicyclo[3.1.0]hexan-3-yl]-1-oxohexan-2-yl]carbamoyl]prop-1-en-2-yl]phenyl]difluoromethyl([(2,2-dimethylpropanoyl)oxy]methoxy)phosphoryl)oxy]methyl 2,2-dimethylpropanoate]: the DC50 was greater than 30 µM.

One may read the DC50 as the midpoint of the concentration-degradation curve.
